Key:
HULEC-5a cells [1] = experiment: Effect upon TGF-β1 treatment in Hulec-5a cells (western blot of protein levels); assay type: cell-based, human
Protocol: 1.2×10^6 Hulec-5a cells, derived from pulmonary vessels, were suspended in a medium, dispensed into a 100-mm plate, and incubated for 24 hours. After 24 hours of incubation, each plate was treated with TGF-β1 (10 ng/ml) alone or in combination with novel flavone derivative I at varying concentrations or a predetermined concentration and/or nintedanib (NIDB), a therapeutic drug for idiopathic pulmonary fibrosis and interstitial lung disease. After 3, 24, and 48 hours of incubation, the cells were lysed with RIPA lysis buffer ([50 mM Tris]-Cl (pH, 7.4), 1% NP-40, 150 mM NaCl, 1 mM EDTA, and 1 mM phenylmethylsulfonyl fluoride (PMSF)) containing MG-132 (10 μM, proteasome inhibitor, protect the HIF-1α subunit from proteasome degradation). Next, only the supernatant was collected by centrifugation (at 13,000 rpm for 7 minutes) at 4° C., and the proteins were separated by SDS-polyacrylamide gel electrophoresis (SDS-PAGE). The separated proteins were transferred to a polyvinylidene difluoride membrane (PVDF membrane), reacted in 5% nonfat dry milk for 2 hours, and then reacted with primary antibodies at 4° C. overnight. After overnight, the proteins further reacted with secondary antibodies corresponding to the respective primary antibodies. Then, the protein band was examined, according to the manufacturer's protocol, using an ECL kit.
The effect of novel flavone derivative II upon TGF-β1 treatment in Hulec-5a cells was evaluated in the same manner as in Example 1 above.
The effect of novel flavone derivative III upon TGF-β1 treatment in Hulec-5a cells was evaluated in the same manner as in Example 1 above.

A549 cells [2] = experiment: Effect upon TGF-β1 treatment in A549 cells (western blot of protein levels); assay type: cell-based
Protocol: 3.5*10^5 A549 cells, derived from lung cancer, were suspended in a medium, dispensed into a 60-mm plate, and incubated for 48 hours. After 48 hours of incubation, each plate was treated with TGF-β1 (10 ng/ml) alone or in combination with novel flavone derivative I at varying concentrations or a predetermined concentration and/or nintedanib (NIDB), a therapeutic drug for idiopathic pulmonary fibrosis and interstitial lung disease as a positive control. […] Next, only the supernatant was collected by centrifugation (at 14,000 rpm for 10 minutes) at 4° C., and the proteins were separated by SDS-polyacrylamide gel electrophoresis (SDS-PAGE). The separated proteins were transferred to a polyvinylidene difluoride membrane (PVDF membrane), reacted in 5% nonfat dry milk for 3 hours, and then reacted with primary antibodies at 4° C. for 12 hours. After 12 hours, the proteins further reacted with secondary antibodies corresponding to the respective primary antibodies. Then, the protein band was examined, according to the manufacturer's protocol, using an ECL kit.
The effect of novel flavone derivative II upon TGF-β1 treatment in A549 cells was evaluated in the same manner as in Example 1 above. FIGS. 20 and 21 show the results thereof.
The effect of novel flavone derivative III upon TGF-β1 treatment in A549 cells was evaluated in the same manner as in Example 1 above.

A549 cells [3] = experiment: Effect of bleomycin treatment on A549 cells (western blot of protein levels); assay type: cell-based; settings: BLM and/or compound, 3, 24, and 48 hours
Protocol: A549 cells, derived from lung cancer, were incubated at different cell numbers depending on the sample treatment time. 4.5×10^5 cells (30 minutes to 12 hours), 4.0×10^5 cells (24 hours), and 3.5×10^5 cells (48 hours) were suspended in the respective media, dispensed into a 60-mm plate, and incubated for 24 hours. After 24 hours, each plate was treated with bleomycin (BLM) alone or in combination with novel flavone derivative I at a predetermined concentration. After a predetermined period of incubation, the cells were lysed with RIPA lysis buffer ([50 mM Tris]-Cl (pH, 7.4), 1% NP-40, 150 mM NaCl, 1 mM EDTA, and 1 mM phenylmethylsulfonyl fluoride (PMSF)) containing MG-132 (10 μM). Next, only the supernatant was collected by centrifugation (at 14,000 rpm for 10 minutes) at 4° C., and the proteins were separated by SDS-polyacrylamide gel electrophoresis (SDS-PAGE). The separated proteins were transferred to a polyvinylidene difluoride membrane (PVDF membrane), reacted in 5% nonfat dry milk for 3 hours, and then reacted with primary antibodies at 4° C. for 12 hours. After 12 hours, the proteins further reacted with secondary antibodies corresponding to the respective primary antibodies. Then, the protein band was examined, according to the manufacturer's protocol, using an ECL kit. […]

HULEC-5a cells [4] = experiment: Effect of bleomycin treatment on Hulec-5a cells (western blot of protein levels); assay type: cell-based, human; settings: Hulec-5a cells treated with bleomycin, FIG. 14
Protocol: 1.2×10^6 Hulec-5a cells, derived from pulmonary vessels, were suspended in a medium, dispensed into a 100-mm plate, and incubated for 24 hours. After 24 hours, each plate was treated with BLM alone or in combination with novel flavone derivative I at varying concentrations or a predetermined concentration. After a predetermined period of incubation, the cells were lysed with RIPA lysis buffer ([50 mM Tris]-Cl (pH, 7.4), 1% NP-40, 150 mM NaCl, 1 mM EDTA, and 1 mM phenylmethylsulfonyl fluoride (PMSF)) containing MG-132 (10 μM). Next, only the supernatant was collected by centrifugation (at 14,000 rpm for 10 minutes) at 4° C., and the proteins were separated by SDS-polyacrylamide gel electrophoresis (SDS-PAGE). The separated proteins were transferred to a polyvinylidene difluoride membrane (PVDF membrane), reacted in 5% nonfat dry milk for 3 hours, and then reacted with primary antibodies at 4° C. for 12 hours. After 12 hours, the proteins further reacted with secondary antibodies corresponding to the respective primary antibodies. Then, the protein band was examined, according to the manufacturer's protocol, using an ECL kit.

COc1ccc(-c2c(-c3ccc(O)c(OC)c3)oc3cc(OC)c(OC)cc3c2=O)cc1 [novel flavone derivative II, 2-(4-hydroxy-3-methoxyphenyl)-6,7-dimethoxy-3-(4-methoxyphenyl)-4H-chromen-4-one]
decreased: levels of fibronectin, COL4, α-SMA, and HIF-1α, increased by TGF-β1 treatment (HULEC-5a cells [1]; Hulec-5a cells, TGF-β1 treatment, FIG. 22) | levels of Col3, Col4, fibronectin, and NOX4 proteins, increased by TGF-β treatment (A549 cells [2]; 10 ng/mL TGF-β1 and compound, 24 hours, FIGS. 20 and 21)

COc1ccc(-c2c(-c3ccc(O)c(O)c3)oc3cc(OC)c(OC)cc3c2=O)cc1 [novel flavone derivative I, 2-(3,4-dihydroxyphenyl)-6,7-dimethoxy-3-(4-methoxyphenyl)-4H-chromen-4-one]
decreased: levels of pulmonary fibrosis-related factors (fibronectin, α-SMA, HIF-1α, NOX1, NOX2, and NOX4), increased by BLM treatment (A549 cells [3]) | levels of pulmonary fibrosis-related factors (fibronectin, α-SMA, HIF-1α, NOX2, and NOX4) (HULEC-5a cells [4]) | levels of fibrosis-related factors (Fibronectin, α-SMA, NOX1, NOX2, and NOX4), increased by TGF-β1 treatment (HULEC-5a cells [1]; HULEC-5a cells, 10 ng/mL TGF-β1 and/or 5 μM compound, 3, 24, and 48 hours, FIG. 9) | levels of fibronectin, HIF-1α, NOX2, NOX4, vimentin, p-EGFR, EGFR, and p-AKT proteins, increased by TGF-β1 treatment (A549 cells [2]; 10 ng/mL TGF-β1 and 5 μM compound, 24 hours, FIG. 7) | levels of fibronectin, HIF-1α, and p-c-Src proteins, increased by TGF-β1 treatment (A549 cells [2]; 10 ng/mL TGF-β1 and 5 μM compound, 48 hours, FIG. 8)

From patent US20240300913A1, “FLAVONE DERIVATIVE AND USE THEREOF FOR IMPROVING PULMONARY FIBROSIS” (A-CHEMBIO CO., LTD, priority 2023, published 2024)
